Measured values from patent publication US20090214600A1, “METHODS AND COMPOSITIONS FOR GASTRIC RESISTANT ORAL FORMULATIONS FOR INTESTINAL DELIVERY” (priority 2008, published 2009).
Where “and” joins values, the source holds several entries; their conditions need not be identical. Identical values can stand only once. Like-named read-outs stand apart in the source and are kept apart here.

Key:
[1] = in vivo; cited from earlier work
[2] = single dose IV, 1.0 g, cited from earlier work
[3] = Rabbit plasma Ceftriaxone concentration after IV administration (control); format: in vivo
[4] = single dose IM, 1.0 g, cited from earlier work
[5] = cited from earlier work
[6] = Rabbit plasma Ceftriaxone concentration after oral administration of oral formulations (HPLC); format: in vivo; settings: oral formulation, 40-80 mg Ceftriaxone, one line per animal (001-005)
Protocol: Oral Ceftriaxone formulations were administered to rabbit test subjects through a formulation delivery tube to permit oral administration, illustrative of the same absorption processes as the human stomach and intestines. Rabbits were dosed at a Ceftriaxone load of 40-80 mg depending upon body weight. Rabbits were dosed with all five oral Ceftriaxone formulations and absorption data collected by HPLC analysis of plasma Ceftriaxone concentrations from the heparinized rabbit plasma specimen. Blood draws were collected at pre-determined intervals of time, spun down to separate serum, and serum was removed and frozen prior to delivery to Clinical Pathology Laboratories in Oklahoma City, Okla.

concentration at 0.5 h ([3]; animal 006, 0.5 Hours, read-out: Plasma Concentration of Ceftriaxone Over Time After IV Administration): 198 µg/mL | concentration at 1 h ([3]; animal 006, 1.0 Hours, read-out: Plasma Concentration of Ceftriaxone Over Time After IV Administration): 136 µg/mL | concentration at 2 h ([3]; animal 006, 2.0 Hours, read-out: Plasma Concentration of Ceftriaxone Over Time After IV Administration): 90.8 µg/mL | concentration at 4 h ([3]; animal 006, 4.0 Hours, read-out: Plasma Concentration of Ceftriaxone Over Time After IV Administration): 36.4 µg/mL | concentration at 6 h ([3]; animal 006, 6.0 Hours, read-out: Plasma Concentration of Ceftriaxone Over Time After IV Administration): 27.3 µg/mL
Compound: CO/N=C(\C(=O)N[C@@H]1C(=O)N2C(C(=O)O)=C(CSc3nc(=O)c(=O)[nH]n3C)CS[C@H]12)c1csc(N)n1 [Ceftriaxone, Ceftriaxone sodium]
dose excreted as unchanged drug in the urine [1]: 33-67% | Plasma Concentrations ([2]; 0.5 hr): 151 µg/mL | Plasma Concentrations ([2]; 1 hr): 111 µg/mL | Plasma Concentrations ([2]; 2 hr): 88 µg/mL | Plasma Concentrations ([2]; 4 hr): 67 µg/mL | Plasma Concentrations ([2]; 6 hr): 53 µg/mL | Plasma Concentrations ([2]; 8 hr): 43 µg/mL | Plasma Concentrations ([2]; 12 hr): 28 µg/mL | Plasma Concentrations ([2]; 16 hr): 18 µg/mL | Plasma Concentrations ([2]; 24 hr): 9 µg/mL | Plasma Concentration of Ceftriaxone Over Time After IV Administration ([3]; animal 006, 0.00 Hours): BLQ (BLQ = Below Limit of Quantitation (<1.00 mcg/mL)) | Plasma Concentrations ([4]; 0.5 hr): 40 µg/mL | Plasma Concentrations ([4]; 1 hr): 68 µg/mL | Plasma Concentrations ([4]; 2 hr): 76 µg/mL | Plasma Concentrations ([4]; 4 hr): 68 µg/mL | Plasma Concentrations ([4]; 6 hr): 56 µg/mL | Plasma Concentrations ([4]; 8 hr): 44 µg/mL | Plasma Concentrations ([4]; 12 hr): 29 µg/mL | solubility in ethanol ([5]; ethanol): slightly soluble | solubility in methanol ([5]; methanol): sparingly | solubility in water ([5]; water): readily soluble | Study Sample Concentration ([6]; 0.00 Hours): BLQ (BLQ = Below Limit of Quantitation (<1.00 mcg/mL)) | Study Sample Concentration ([6]; 0.5 Hours): 40.194 µg/mL and 31.84 µg/mL and 110.88 µg/mL and 143.15 µg/mL and 35.69 µg/mL | Study Sample Concentration ([6]; 1.0 Hours): 27.41 µg/mL and 21.71 µg/mL and 75.60 µg/mL and 97.60 µg/mL and 24.33 µg/mL | Study Sample Concentration ([6]; 2.0 Hours): 18.27 µg/mL and 14.47 µg/mL and 50.40 µg/mL and 65.07 µg/mL and 16.22 µg/mL | Study Sample Concentration ([6]; 4.0 Hours): 7.31 µg/mL and 5.79 µg/mL and 20.16 µg/mL and 26.03 µg/mL and 6.44 µg/mL | Study Sample Concentration ([6]; 6.0 Hours): 5.48 µg/mL and 4.34 µg/mL and 15.12 µg/mL and 19.52 µg/mL and 4.87 µg/mL
